Experimental findings from patent US8058247B2 (priority 2006, dated 2011) are described below.

The subject of one test is M. bovis BCG Japanese. It counts as cell-based, Mycobacterium bovis. The settings on record: agar dilution, 3-week incubation at 37° C.; smaller number = higher activity.
Test [1] concerns M. avium subsp. paratuberculosis ATCC43015. It counts as cell-based, Mycobacterium avium subsp. paratuberculosis.
The subject of test [2] is M. avium subsp. avium ATCC25291. Nature of the test: Minimum growth inhibitory concentration (MIC), serial dilution on Middlebrook 7H10 agar with mycobactin J. The class given is cell-based, Mycobacterium avium subsp. avium. The settings on record: 3-week incubation at 37° C., smaller number = higher activity.

With `NNC(=O)c1ccncc1` [INH, isoniazid], in the test with M. bovis BCG Japanese, the “Minumum growth inhibitory conc. of test compounds, M. bovis BCG Japanese” value is 0.20 µg/mL. In test [1], the “Minumum growth inhibitory conc. of test compounds, M. avium subsp. paratuberculosis ATCC43015” value was above 50 µg/mL; the “antibacterial activity against Mycobacterium avium subsp. paratuberculosis compared with the caprazamycin derivatives of Production Examples 1 and 2” value is on record as “lower antibacterial activity”. For the same molecule, the “Minumum growth inhibitory conc. of test compounds, M. avium subsp. avium ATCC25291” value in test [2] is above 50 µg/mL.
With caprazamycin B [CPZ-B], the “Minumum growth inhibitory conc. of test compounds, M. bovis BCG Japanese” value in the test on M. bovis BCG Japanese was 6.25 µg/mL. Besides, in test [1], the “Minumum growth inhibitory conc. of test compounds, M. avium subsp. paratuberculosis ATCC43015” value came to 3.13 µg/mL; the “antibacterial activity against Mycobacterium avium subsp. paratuberculosis compared with the caprazamycin derivatives of Production Examples 1 and 2” value is “lower antibacterial activity”. In addition, the “Minumum growth inhibitory conc. of test compounds, M. avium subsp. avium ATCC25291” value in test [2] was 12.5 µg/mL.
As for “caprazol-3′″-dodecanoyl ester derivative [Compound VII-F]”, the “Minumum growth inhibitory conc. of test compounds, M. bovis BCG Japanese” value in the test on M. bovis BCG Japanese amounted to 3.13 µg/mL. Further, the “Minumum growth inhibitory conc. of test compounds, M. avium subsp. paratuberculosis ATCC43015” value in test [1] was 0.78 µg/mL. Also, the “Minumum growth inhibitory conc. of test compounds, M. avium subsp. avium ATCC25291” value in test [2] stood at 12.5 µg/mL.
